From PMC11012124, “Synthesis of Novel Triazine-Based Chalcones and 8,9-dihydro-7H-pyrimido[4,5-b][1,4]diazepines as Potential Leads in the Search of Anticancer, Antibacterial and Antifungal Agents” (International Journal of Molecular Sciences, 2024)

What was measured:
Test in all cases: cells
[1] = system: CCRF-CEM; conditions: Homo sapiens, 48 h; for CC50: read-out: LC50
[2] = system: HL-60(TB); conditions: Homo sapiens, HL-60, 48 h; for CC50: read-out: LC50
[3] = system: K-562; conditions: Homo sapiens, K562, 48 h; for GI50: K-562, 48 h; for CC50: read-out: LC50
[4] = system: MOLT-4; conditions: Homo sapiens, MOLT-4, 48 h; for CC50: read-out: LC50
[5] = system: A549/ATCC; conditions: Homo sapiens, A549, 48 h; for CC50: read-out: LC50
[6] = system: EKVX; conditions: Homo sapiens, 48 h; for CC50: read-out: LC50
[7] = system: HOP-92; conditions: Homo sapiens, HOP-92, 48 h; for CC50: read-out: LC50
[8] = system: NCI-H460; conditions: Homo sapiens, NCI-H460, 48 h; for CC50: read-out: LC50
[9] = system: NCI-H522; conditions: Homo sapiens, NCI-H522, 48 h; for CC50: read-out: LC50
[10] = system: COLO 205; conditions: Homo sapiens, COLO 205, 48 h; for CC50: read-out: LC50
[11] = system: HCC-2998; conditions: Homo sapiens, HCC 2998, 48 h; for CC50: read-out: LC50
[12] = system: HCT-116; conditions: Homo sapiens, HCT-116, 48 h; for CC50: read-out: LC50
[13] = system: HT29; conditions: Homo sapiens, HT-29, 48 h; for CC50: read-out: LC50
[14] = system: KM12; conditions: Homo sapiens, KM12, 48 h; for CC50: read-out: LC50
[15] = system: SF-268; conditions: Homo sapiens, SF-268, 48 h; for CC50: read-out: LC50
[16] = system: SF-539; conditions: Homo sapiens, SF-539, 48 h; for CC50: read-out: LC50, SF-539, 48 h
[17] = system: SNB-19; conditions: Homo sapiens, SNB-19, 48 h; for CC50: read-out: LC50
[18] = system: U251; conditions: Homo sapiens, U-251, 48 h; for GI50: U251, 48 h; for CC50: read-out: LC50
[19] = system: LOX IMVI; conditions: Homo sapiens, 48 h; for CC50: read-out: LC50, LOX IMVI, 48 h
[20] = system: M14; conditions: Homo sapiens, M14, 48 h; for CC50: read-out: LC50
[21] = system: SK-MEL-2; conditions: Homo sapiens, SK-MEL-2, 48 h; for CC50: read-out: LC50
[22] = system: SK-MEL-28; conditions: Homo sapiens, SK-MEL-28, 48 h; for CC50: read-out: LC50
[23] = system: SK-MEL-5; conditions: Homo sapiens, SK-MEL-5, 48 h; for CC50: read-out: LC50
[24] = system: UACC-257; conditions: Homo sapiens, UACC-257, 48 h; for CC50: read-out: LC50
[25] = system: UACC-62; conditions: Homo sapiens, UACC-62, 48 h; for CC50: read-out: LC50
[26] = system: OVCAR-3; conditions: Homo sapiens, OVCAR-3, 48 h; for CC50: read-out: LC50
[27] = system: 786-0; conditions: Homo sapiens, 786-0, 48 h; for CC50: read-out: LC50
[28] = system: A498; conditions: Homo sapiens, A498, 48 h; for CC50: read-out: LC50
[29] = system: CAKI-1; conditions: Homo sapiens, CAKI-1, 48 h; for CC50: read-out: LC50
[30] = system: SN12C; conditions: Homo sapiens, 48 h; for CC50: read-out: LC50
[31] = system: UO-31; conditions: Homo sapiens, UO-31, 48 h; for CC50: read-out: LC50
[32] = system: PC-3; conditions: Homo sapiens, PC-3, 48 h; for CC50: read-out: LC50
[33] = system: MDA-MB-231/ATCC; conditions: Homo sapiens, MDA-MB-231, 48 h; for CC50: read-out: LC50
[34] = system: HS 578T; conditions: Homo sapiens, 48 h; for CC50: read-out: LC50
[35] = system: T-47D; conditions: Homo sapiens, T47D, 48 h; for CC50: read-out: LC50
[36] = system: MDA-MB-468; conditions: Homo sapiens, MDA-MB-468, 48 h; for CC50: read-out: LC50

CN(C)c1nc(NCCNS(=O)(=O)c2ccc(C3=Nc4c(N)nc(N)nc4NC(c4ccc(C(F)(F)F)cc4)C3)cc2)nc(N2CCOCC2)n1 (stereo not drawn) [30g]
GI50 [1]: 25.9 µM | CC50 [1]: > 100 µM | GI50 [2]: 27.5 µM | CC50 [2]: > 100 µM | GI50 [3]: 29.1 µM | CC50 [3]: > 100 µM | GI50 [4]: 17.3 µM | CC50 [4]: > 100 µM | GI50 [5]: 51.3 µM | CC50 [5]: > 100 µM | GI50 [6]: 47.2 µM | CC50 [6]: > 100 µM | GI50 [7]: 7.48 µM | CC50 [7]: > 100 µM | GI50 [8]: 36.5 µM | CC50 [8]: > 100 µM | GI50 [9]: 51.7 µM | CC50 [9]: > 100 µM | GI50 [10]: 16.5 µM | CC50 [10]: 76.2 µM | GI50 [11]: 20.2 µM | CC50 [11]: > 100 µM | GI50 [12]: 41.9 µM | CC50 [12]: > 100 µM | GI50 [13]: 19.8 µM | CC50 [13]: > 100 µM | GI50 [14]: 37 µM | CC50 [14]: > 100 µM | GI50 [15]: 19.9 µM | CC50 [15]: > 100 µM | GI50 [16]: 22.5 µM | CC50 [16]: > 100 µM | GI50 [17]: 30 µM | CC50 [17]: > 100 µM | GI50 [18]: 24.2 µM | CC50 [18]: > 100 µM | GI50 [19]: 17.1 µM | CC50 [19]: 64.1 µM | GI50 [20]: 22 µM | CC50 [20]: > 100 µM | GI50 [21]: 15.8 µM | CC50 [21]: 57.8 µM | GI50 [22]: 34.1 µM | CC50 [22]: > 100 µM | GI50 [23]: 15.9 µM | CC50 [23]: 57.1 µM | GI50 [24]: 20.4 µM | CC50 [24]: > 100 µM | GI50 [25]: 16.4 µM | CC50 [25]: 81.1 µM | GI50 [26]: 53.9 µM | CC50 [26]: > 100 µM | GI50 [27]: 20.8 µM | CC50 [27]: > 100 µM | GI50 [28]: 24.1 µM | CC50 [28]: > 100 µM | GI50 [29]: 25.9 µM | CC50 [29]: > 100 µM | GI50 [30]: 35.7 µM | CC50 [30]: > 100 µM | GI50 [31]: 100 µM | CC50 [31]: > 100 µM | GI50 [32]: 24.6 µM | CC50 [32]: > 100 µM | GI50 [33]: 16.9 µM | CC50 [33]: > 100 µM | GI50 [34]: 19.2 µM | CC50 [34]: > 100 µM | GI50 [35]: 21.3 µM | CC50 [35]: > 100 µM | GI50 [36]: 13.7 µM | CC50 [36]: 69.5 µM

CN(C)c1nc(NCCNS(=O)(=O)c2ccc(C(=O)/C=C/c3ccc(C(F)(F)F)cc3)cc2)nc(N2CCOCC2)n1 [23g]
GI50 [1]: 3.2 µM | CC50 [1]: > 100 µM | GI50 [2]: 5.12 µM | CC50 [2]: > 100 µM | GI50 [3]: 3.21 µM | CC50 [3]: > 100 µM | GI50 [4]: 3.48 µM | CC50 [4]: > 100 µM | GI50 [5]: 13.8 µM | CC50 [5]: 62.3 µM | GI50 [6]: 14.3 µM | CC50 [6]: 52.5 µM | GI50 [7]: 15.2 µM | CC50 [7]: 65.2 µM | GI50 [8]: 16.1 µM | CC50 [8]: 65.6 µM | GI50 [9]: 15.2 µM | CC50 [9]: 58.2 µM | GI50 [10]: 15 µM | CC50 [10]: 69.8 µM | GI50 [11]: 12.9 µM | CC50 [11]: 52.5 µM | GI50 [12]: 3.19 µM | CC50 [12]: 33.5 µM | GI50 [13]: 2.06 µM | CC50 [13]: 9.88 µM | GI50 [14]: 8.95 µM | CC50 [14]: 68.3 µM | GI50 [15]: 16.3 µM | CC50 [15]: 87.9 µM | GI50 [16]: 13 µM | CC50 [16]: 50.7 µM | GI50 [17]: 13.5 µM | CC50 [17]: 51.3 µM | GI50 [18]: 2.95 µM | CC50 [18]: 40.7 µM | GI50 [19]: 1.68 µM | CC50 [19]: 5.94 µM | GI50 [20]: 9.83 µM | CC50 [20]: 49.5 µM | GI50 [21]: 16.3 µM | CC50 [21]: 56.7 µM | GI50 [22]: 14.4 µM | CC50 [22]: 52.6 µM | GI50 [23]: 15.8 µM | CC50 [23]: 54.9 µM | GI50 [24]: 15.3 µM | CC50 [24]: 56.5 µM | GI50 [25]: 11.2 µM | CC50 [25]: 48.5 µM | GI50 [26]: 16.4 µM | CC50 [26]: 57.3 µM | GI50 [27]: 14.5 µM | CC50 [27]: 54.9 µM | GI50 [28]: 13.3 µM | CC50 [28]: 53 µM | GI50 [29]: 11.4 µM | CC50 [29]: 51.7 µM | GI50 [30]: 12.5 µM | CC50 [30]: 50 µM | GI50 [31]: 11.9 µM | CC50 [31]: 49.2 µM | GI50 [32]: 10.8 µM | CC50 [32]: 60 µM | GI50 [33]: 11.7 µM | CC50 [33]: 50.3 µM | GI50 [34]: 17.8 µM | CC50 [34]: > 100 µM | GI50 [35]: 5.5 µM | CC50 [35]: > 100 µM | GI50 [36]: 5.11 µM | CC50 [36]: 48.8 µM
